Results from the NIST ThermoML archive (doi:10.1016/j.jct.2015.05.028).
± gives the expanded uncertainty stated by the source.

Legend:
[1] = Crystal; DTA
[2] = mn = molality of the nth substance listed, in mol/kg; settings: 99.6 kPa, Liquid, Vibrating tube method

CCN1C(=O)N(CC)C2NC(=O)NC21 (centres undefined)
Normal melting temperature [1]: 327.64 ± 2 °C

CN1C(=O)N(C)C2NC(=O)NC21 (centres undefined)
Normal melting temperature [1]: 253.28 ± 2 °C

CN1C(=O)N(C)C2NC(=O)NC21 (centres undefined) + O
mass density ([2]; 278.15 K, m1 = 0.06671): 1003.16 ± 0.11 kg/m3 | mass density ([2]; 278.15 K, m1 = 0.0951): 1004.51 ± 0.11 kg/m3 | mass density ([2]; 278.15 K, m1 = 0.1319): 1006.28 ± 0.11 kg/m3 | mass density ([2]; 278.15 K, m1 = 0.169): 1008.03 ± 0.11 kg/m3 | mass density ([2]; 278.15 K, m1 = 0.1987): 1009.43 ± 0.11 kg/m3 | mass density ([2]; 278.15 K, m1 = 0.2323): 1011.02 ± 0.11 kg/m3 | mass density ([2]; 278.15 K, m1 = 0.2679): 1012.68 ± 0.11 kg/m3 | mass density ([2]; 278.15 K, m1 = 0.3038): 1014.37 ± 0.11 kg/m3 | mass density ([2]; 278.15 K, m1 = 0.3326): 1015.72 ± 0.11 kg/m3 | mass density ([2]; 278.15 K, m1 = 0.3594): 1016.96 ± 0.11 kg/m3 | mass density ([2]; 278.15 K, m1 = 0.3919): 1018.47 ± 0.11 kg/m3 | mass density ([2]; 288.15 K, m1 = 0.06671): 1002.21 ± 0.11 kg/m3 | mass density ([2]; 288.15 K, m1 = 0.0951): 1003.52 ± 0.11 kg/m3 | mass density ([2]; 288.15 K, m1 = 0.1319): 1005.23 ± 0.11 kg/m3 | mass density ([2]; 288.15 K, m1 = 0.169): 1006.93 ± 0.11 kg/m3 | mass density ([2]; 288.15 K, m1 = 0.1987): 1008.31 ± 0.11 kg/m3 | mass density ([2]; 288.15 K, m1 = 0.2323): 1009.84 ± 0.11 kg/m3 | mass density ([2]; 288.15 K, m1 = 0.2679): 1011.46 ± 0.11 kg/m3 | mass density ([2]; 288.15 K, m1 = 0.3038): 1013.1 ± 0.11 kg/m3 | mass density ([2]; 288.15 K, m1 = 0.3326): 1014.41 ± 0.11 kg/m3 | mass density ([2]; 288.15 K, m1 = 0.3594): 1015.62 ± 0.11 kg/m3 | mass density ([2]; 288.15 K, m1 = 0.3919): 1017.09 ± 0.11 kg/m3 | mass density ([2]; 298.15 K, m1 = 0.06671): 1000.08 ± 0.11 kg/m3 | mass density ([2]; 298.15 K, m1 = 0.0951): 1001.37 ± 0.11 kg/m3 | mass density ([2]; 298.15 K, m1 = 0.1319): 1003.04 ± 0.11 kg/m3 | mass density ([2]; 298.15 K, m1 = 0.169): 1004.72 ± 0.11 kg/m3 | mass density ([2]; 298.15 K, m1 = 0.1987): 1006.04 ± 0.11 kg/m3 | mass density ([2]; 298.15 K, m1 = 0.2323): 1007.54 ± 0.11 kg/m3 | mass density ([2]; 298.15 K, m1 = 0.2679): 1009.13 ± 0.11 kg/m3 | mass density ([2]; 298.15 K, m1 = 0.3038): 1010.73 ± 0.11 kg/m3 | mass density ([2]; 298.15 K, m1 = 0.3326): 1012.01 ± 0.11 kg/m3 | mass density ([2]; 298.15 K, m1 = 0.3594): 1013.19 ± 0.11 kg/m3 | mass density ([2]; 298.15 K, m1 = 0.3919): 1014.62 ± 0.11 kg/m3 | mass density ([2]; 308.15 K, m1 = 0.06671): 997.02 ± 0.11 kg/m3 | mass density ([2]; 308.15 K, m1 = 0.0951): 998.281 ± 0.11 kg/m3 | mass density ([2]; 308.15 K, m1 = 0.1319): 999.917 ± 0.11 kg/m3 | mass density ([2]; 308.15 K, m1 = 0.169): 1001.55 ± 0.11 kg/m3 | mass density ([2]; 308.15 K, m1 = 0.1987): 1002.87 ± 0.11 kg/m3 | mass density ([2]; 308.15 K, m1 = 0.2323): 1004.34 ± 0.11 kg/m3 | mass density ([2]; 308.15 K, m1 = 0.2679): 1005.9 ± 0.11 kg/m3 | mass density ([2]; 308.15 K, m1 = 0.3038): 1007.47 ± 0.11 kg/m3 | mass density ([2]; 308.15 K, m1 = 0.3326): 1008.71 ± 0.11 kg/m3 | mass density ([2]; 308.15 K, m1 = 0.3594): 1009.88 ± 0.11 kg/m3 | mass density ([2]; 308.15 K, m1 = 0.3919): 1011.29 ± 0.11 kg/m3 | mass density ([2]; 318.15 K, m1 = 0.06671): 993.153 ± 0.11 kg/m3 | mass density ([2]; 318.15 K, m1 = 0.0951): 994.389 ± 0.11 kg/m3 | mass density ([2]; 318.15 K, m1 = 0.1319): 995.999 ± 0.11 kg/m3 | mass density ([2]; 318.15 K, m1 = 0.169): 997.607 ± 0.11 kg/m3 | mass density ([2]; 318.15 K, m1 = 0.1987): 998.902 ± 0.11 kg/m3 | mass density ([2]; 318.15 K, m1 = 0.2323): 1000.35 ± 0.11 kg/m3 | mass density ([2]; 318.15 K, m1 = 0.2679): 1001.88 ± 0.11 kg/m3 | mass density ([2]; 318.15 K, m1 = 0.3038): 1003.42 ± 0.11 kg/m3 | mass density ([2]; 318.15 K, m1 = 0.3326): 1004.65 ± 0.11 kg/m3 | mass density ([2]; 318.15 K, m1 = 0.3594): 1005.79 ± 0.11 kg/m3 | mass density ([2]; 318.15 K, m1 = 0.3919): 1007.17 ± 0.11 kg/m3

O [water] + CCN1C(=O)N(CC)C2NC(=O)NC21
mass density ([2]; 278.15 K, m2 = 0): 999.964 ± 0.11 kg/m3

O [water] + CN1C(=O)N(C)C2NC(=O)NC21
mass density ([2]; 278.15 K, m2 = 0): 999.965 ± 0.11 kg/m3
